ChEMBL document CHEMBL5506037, “Synthesis of Heterocyclic Ring-Fused Bisnoralcohol Derivatives as Novel Small-Molecule Antiosteoporosis Agents” (J Med Chem, 2024)
The source made the active and inactive calls. The calls are words filed in the database; no cut-off is given here.

Assays:
[1] = Tmax in ICR mouse at 1 mg/kg, iv measured upto 24 hrs by LC-MS/MS analysis; assay type: ADME, organism-based; conditions: in vivo
[2] = system: Mus musculus; assay: Anti-osteoporosis activity in ovariectomized C57BL/6 mouse assessed as prevention of bone loss by measuring reduction in osteoclast formation at 0.6 mg/kg, ip administered every day for 6 weeks by TRAP staining based analysis; assay type: functional, organism-based
[3] = system: BMMC; assay: Anti-osteoclastogenesis activity in M-CSF/RANKL-induced C57BL/6J mouse BMMC cells assessed as inhibition of Nfatc1 gene expression by RNA sequencing analysis; assay type: functional, cell-based
[4] = Cmax in ICR mouse at 10 mg/kg, po measured upto 24 hrs by LC-MS/MS analysis; assay type: ADME, organism-based; conditions: in vivo
[5] = system: BMMC; assay: Anti-osteoclastogenesis activity in M-CSF/RANKL-induced C57BL/6J mouse BMMC cells assessed as reduction in osteoclast generation at 0.5 uM incubated for 7 days by TRAP staining based analysis relative to control; assay type: functional; parameters: scale not given: the % may be the effect or the level left; conditions: time 7 day
[6] = system: BMMC; assay: Anti-osteoclastogenesis activity in M-CSF/RANKL-induced C57BL/6J mouse BMMC cells assessed as inhibition of osteoclast differentiation at 1 uM incubated for 7 days by TRAP staining based analysis relative to control; assay type: functional; conditions: 168 h, time 7 day
[7] = system: BMMC; assay: Anti-osteoclastogenesis activity in M-CSF/RANKL-induced C57BL/6J mouse BMMC cells assessed as reduction in c-Fos protein expression measured after 3 days by Western blot analysis; assay type: functional, cell-based; conditions: dose 0.05-5 µM, time 3.0 day
[8] = system: BMMC; assay: Anti-osteoclastogenesis activity in M-CSF/RANKL-induced C57BL/6J mouse BMMC cells assessed as inhibition of Oscar gene expression by RNA sequencing analysis; assay type: functional, cell-based
[9] = system: BMMC; assay: Anti-osteoclastogenesis activity in M-CSF/RANKL-induced C57BL/6J mouse BMMC cells assessed as reduction in CTSK mRNA expression at 0.05 to 5 uM measured after 2 days by RT-qPCR analysis; assay type: functional, cell-based; conditions: dose 0.05-5 µM, time 2.0 day
[10] = system: BMMC; assay: Anti-osteoclastogenesis activity in M-CSF/RANKL-induced C57BL/6J mouse BMMC cells assessed as reduction in size and amount of osteoclasts by measuring reduction in F-actin ring formation incubated for 7 days by rhodamine-labeled phalloidin staining based fluorescence microscopic analysis; assay type: functional, cell-based; conditions: dose 0.05-0.5 µM, time 7.0 day
[11] = system: BMMC; assay: Anti-osteoclastogenesis activity in M-CSF/RANKL-induced C57BL/6J mouse BMMC cells assessed as inhibition of Mapk12 gene expression by RNA sequencing analysis; assay type: functional, cell-based
[12] = Toxicity in ovariectomized female C57BL/6 mouse assessed as reduction in body weight at 0.2 to 0.6 mg/kg, ip administered every day for 6 weeks; assay type: organism-based; conditions: in vivo, 1008 h, dose 0.2-0.6 mg/kg
[13] = system: BMMC; assay: Anti-osteoclastogenesis activity in M-CSF/RANKL-induced C57BL/6J mouse BMMC cells assessed as inhibition of Itgb3 gene expression by RNA sequencing analysis; assay type: functional, cell-based
[14] = AUC (0 to infinity) in ICR mouse at 10 mg/kg, po measured upto 24 hrs by LC-MS/MS analysis; assay type: ADME, organism-based; conditions: in vivo
[15] = AUC (0 to t) in ICR mouse at 1 mg/kg, iv measured upto 24 hrs by LC-MS/MS analysis; assay type: ADME, organism-based; conditions: in vivo
[16] = system: BMMC; assay: Anti-osteoclastogenesis activity in M-CSF/RANKL-induced C57BL/6J mouse BMMC cells assessed as inhibition of Il1b gene expression by RNA sequencing analysis; assay type: functional, cell-based
[17] = Terminal elimination half life in ICR mouse at 1 mg/kg, iv measured upto 24 hrs by LC-MS/MS analysis; assay type: ADME, organism-based; conditions: in vivo, read-out: beta t1/2 (converted)
[18] = system: BMMC; assay: Anti-osteoclastogenesis activity in M-CSF/RANKL-induced C57BL/6J mouse BMMC cells assessed as inhibition of osteoclast differentiation at early stage at 0.1 uM measured after 1 to 3 days by TRAP staining based analysis relative to control; assay type: functional; conditions: time 1-3 day
[19] = system: BMMC; assay: Anti-osteoclastogenesis activity in M-CSF/RANKL-induced C57BL/6J mouse BMMC cells assessed as inhibition of Fosl2 gene expression by RNA sequencing analysis; assay type: functional, cell-based
[20] = system: BMMC; assay: Anti-osteoclastogenesis activity in M-CSF/RANKL-induced C57BL/6J mouse BMMC cells assessed as inhibition of MMP9 gene expression by RNA sequencing analysis; assay type: functional, cell-based
[21] = Apparent volume of distribution in ICR mouse at 1 mg/kg, iv measured upto 24 hrs by LC-MS/MS analysis; assay type: ADME, organism-based; conditions: in vivo, read-out: Vz
[22] = system: BMMC; assay: Anti-osteoclastogenesis activity in M-CSF/RANKL-induced C57BL/6J mouse BMMC cells assessed as inhibition of osteoclast differentiation at 0.1 uM incubated for 7 days by TRAP staining based analysis relative to control; assay type: functional; conditions: 168 h, time 7 day
[23] = Terminal elimination half life in ICR mouse at 10 mg/kg, po measured upto 24 hrs by LC-MS/MS analysis; assay type: ADME, organism-based; conditions: in vivo, read-out: beta t1/2 (converted)
[24] = system: BMMC; assay: Anti-osteoclastogenesis activity in M-CSF/RANKL-induced C57BL/6J mouse BMMC cells assessed as inhibition of FOS gene expression by RNA sequencing analysis; assay type: functional, cell-based
[25] = system: BMMC; assay: Anti-osteoclastogenesis activity in M-CSF/RANKL-induced C57BL/6J mouse BMMC cells assessed as inhibition of CALCR gene expression by RNA sequencing analysis; assay type: functional, cell-based
[26] = system: BMMC; assay: Anti-osteoclastogenesis activity in M-CSF/RANKL-induced C57BL/6J mouse BMMC cells assessed as inhibition of lilra5 gene expression by RNA sequencing analysis; assay type: functional, cell-based
[27] = system: BMMC; assay: Anti-osteoclastogenesis activity in M-CSF/RANKL-induced C57BL/6J mouse BMMC cells assessed as reduction in TRAF6 mRNA expression at 0.05 to 5 uM measured after 2 days by RT-qPCR analysis; assay type: functional, cell-based; conditions: dose 0.05-5 µM, time 2.0 day
[28] = system: BMMC; assay: Anti-osteoclastogenesis activity in M-CSF/RANKL-induced C57BL/6J mouse BMMC cells assessed as inhibition of CTSK gene expression by RNA sequencing analysis; assay type: functional, cell-based
[29] = system: BMMC; assay: Anti-osteoclastogenesis activity in M-CSF/RANKL-induced C57BL/6J mouse BMMC cells assessed as reduction in c-Fos mRNA expression at 0.05 to 5 uM measured after 2 days by RT-qPCR analysis; assay type: functional, cell-based; conditions: dose 0.05-5 µM, time 2.0 day
[30] = system: BMMC; assay: Anti-osteoclastogenesis activity in M-CSF/RANKL-induced C57BL/6J mouse BMMC cells assessed as inhibition of Fosl1 gene expression by RNA sequencing analysis; assay type: functional, cell-based
[31] = system: Mus musculus; assay: Anti-osteoporosis activity in ovariectomized C57BL/6 mouse assessed as prevention of bone loss by measuring recovery of trabecular spacing in femur at 0.6 mg/kg, ip administered every day for 6 weeks by 3D-imaging analysis relative to control; assay type: functional
[32] = system: BMMC; assay: Anti-osteoclastogenesis activity in M-CSF/RANKL-induced C57BL/6J mouse BMMC cells assessed as inhibition of FCGR3 gene expression by RNA sequencing analysis; assay type: functional, cell-based
[33] = system: BMMC; assay: Anti-osteoclastogenesis activity in M-CSF/RANKL-induced C57BL/6J mouse BMMC cells assessed as inhibition of Traf6 gene expression by RNA sequencing analysis; assay type: functional, cell-based
[34] = Total plasma clearance in ICR mouse at 1 mg/kg, iv measured upto 24 hrs by LC-MS/MS analysis; assay type: ADME, organism-based

CCNC(=O)[C@@H](C)[C@H]1CC[C@H]2[C@@H]3CC=C4C(C)(C)c5nnsc5C[C@]4(C)[C@H]3CC[C@]12C
Tmax [1]: 4.8 min
Activity [2]: Active
Activity [3]: Active
Cmax [4]: 230 ng/mL
Activity [5]: ~100%
inhibition at 1 µM [6]: 100%
Activity [7]: Dose-Dependent Effect
Activity [8]: Active
Activity [9]: Active
Activity [10]: Dose-Dependent Effect
Activity [11]: Active
Activity [12]: Non-Toxic
Activity [13]: Active
AUC(0-inf) [14]: 688 ng·h/mL
AUC(0-t) at 24 h [15]: 509 ng·h/mL
Activity [16]: Active
half-life [17]: 1.76 h
inhibition at 0.1 µM [18]: 73.1%
Activity [19]: Active
Activity [20]: Active
Vd [21]: 4.85 L/kg
inhibition at 0.1 µM [22]: 82.8%
half-life [23]: 1.79 h
Activity [24]: Active
Activity [25]: Active
Activity [26]: Active
Activity [27]: Active
Activity [28]: Active
Activity [29]: Active
Activity [30]: Active
Activity [31]: 61.09%
Activity [32]: Active
Activity [33]: Active
clearance [34]: 31.7 mL/min/kg
